How the values were obtained:
[1] = Treatment-emergent adverse events, safety population; assay type: in vivo, healthy adult volunteers; details: for Ataxia / Blood creatinine increased / Dizziness / Glycosuria / Proteinuria / Red blood cells urine / Renal and urinary disorders / White blood cells urine positive / Blood calcium decreased / Headache / Investigations / Lymphocyte count decreased / Nervous system disorders / Number of Subjects with at Least One Adverse Event / Paresthesia / Prothrombin time prolonged / Respiratory, thoracic and mediastinal disorders / Cough: TEAE, subjects n (%)
Method: (§1) Safety assessments for TEAEs were conducted, including physical examinations (including neurological evaluations), […], vital signs, clinical laboratory tests, selected biomarkers for acute kidney injury (see section on kidney biomarkers), spirometry, and ECG measurements (see Supplementary Data S5 and S6 for clinical laboratory evaluations and schedule of events). If symptoms of ataxia were present, SARA (Scale for the Assessment and Rating of Ataxia, according to Schmitz-Hübsch et al.) assessment forms were completed to assess their severity.

[2] = Neurotoxicity (paresthesias, ataxia, SARA scores); assay type: in vivo, healthy adult volunteers; parameters: key to SARA score: Nose–finger—right / SARA score: Nose–finger—left: 0: no tremor; 0.5: tremor with an amplitude < 2 cm (unilateral); 1: tremor with an amplitude < 2 cm (bilateral); key to SARA score: Fast alternating hand movements—right / SARA score: Fast alternating hand movements—left / SARA score: Heel–shin slide—right / SARA score: Heel–shin slide—left / SARA score: Sitting / SARA score: Speech disturbance: 0: normal; key to SARA score: Finger chase—right / SARA score: Finger chase—left: 0: normal, no dysmetria; 0.5: dysmetria, under/overshooting target < 5 cm (unilateral); 1: dysmetria, under/overshooting target < 5 cm (bilateral); key to Cumulative SARA Score / SARA score: Gait / SARA score: Stance: normal, able to stand in tandem for >10s; able to stand with feet together without sway, but not in tandem for >10s; 2: able to stand with feet together for >10s, but only with sway; details: for Cumulative SARA Score / SARA score: Fast alternating hand movements—left / SARA score: Fast alternating hand movements—right / SARA score: Finger chase—left / SARA score: Finger chase—right / SARA score: Gait / SARA score: Heel–shin slide—left / SARA score: Heel–shin slide—right / SARA score: Nose–finger—left / SARA score: Nose–finger—right / SARA score: Sitting / SARA score: Speech disturbance / SARA score: Stance: highest score for any visit
Method: as §1

## colistimethate sodium [CMS]
[1]; Cohort 1 (N = 9)
  Ataxia: 0
  Blood creatinine increased: 0
  Dizziness: 0
  Glycosuria: 0
  Proteinuria: 1 (11.1%)
  Red blood cells urine: 0
  Renal and urinary disorders: 1 (11.1%)
  White blood cells urine positive: 0
[1]; Cohort 2 (N = 10)
  Blood calcium decreased: 0
  Blood creatinine increased: 1 (10.0%)
  Glycosuria: 0
  Headache: 5 (50.0%)
  Investigations: 6 (60.0%)
  Lymphocyte count decreased: 1 (10.0%)
  Nervous system disorders: 10 (100.0%)
  Number of Subjects with at Least One Adverse Event: 10 (100.0%)
  Paresthesia: 10 (100.0%)
  Prothrombin time prolonged: 3 (30.0%)
  Red blood cells urine: 1 (10.0%)
  Respiratory, thoracic and mediastinal disorders: 3 (30.0%)
[1]; Cohort 3 (N = 12)
  Ataxia: 10 (83.3%)
  Blood calcium decreased: 4 (33.3%)
  Cough: 2 (16.7%)
  Dizziness: 2 (16.7%)
  Headache: 4 (33.3%)
  Investigations: 11 (91.7%)
  Lymphocyte count decreased: 1 (8.3%)
  Nervous system disorders: 11 (91.7%)
  Number of Subjects with at Least One Adverse Event: 11 (91.7%)
  Paresthesia: 9 (75.0%)
  Proteinuria: 7 (58.3%)
  Prothrombin time prolonged: 1 (8.3%)
  Renal and urinary disorders: 7 (58.3%)
  Respiratory, thoracic and mediastinal disorders: 2 (16.7%)
  White blood cells urine positive: 7 (58.3%)
[1]; Overall (N = 31)
  Ataxia: 17 (54.8%)
  Blood calcium decreased: 6 (19.4%)
  Blood creatinine increased: 5 (16.1%)
  Cough: 6 (19.4%)
  Dizziness: 5 (16.1%)
  Glycosuria: 5 (16.1%)
  Headache: 14 (45.2%)
  Investigations: 24 (77.4%)
  Lymphocyte count decreased: 4 (12.9%)
  Nervous system disorders: 27 (87.1%)
  Number of Subjects with at Least One Adverse Event: 30 (96.8%)
  Paresthesia: 24 (77.4%)
  Proteinuria: 10 (32.3%)
  Prothrombin time prolonged: 7 (22.6%)
  Red blood cells urine: 4 (12.9%)
  Renal and urinary disorders: 10 (32.3%)
  Respiratory, thoracic and mediastinal disorders: 8 (25.8%)
  White blood cells urine positive: 9 (29.0%)
[1]; Period 1 (IV), of all AEs
  AEs that occurred during Period 1: 138/287
[1]; overall
  total AEs reported: 287
[1]; resulted in discontinuation of the subject
  serious TEAE: one serious TEAE of acute kidney injury
[1]; whole study
  deaths: no deaths
[2]; Cohort 1
  ataxia reported: no ataxia
[2]; subject 20012078
  Cumulative SARA Score: 1
  SARA score: Fast alternating hand movements—left: 0
  SARA score: Fast alternating hand movements—right: 0
  SARA score: Finger chase—left: 0
  SARA score: Finger chase—right: 0
  SARA score: Gait: 1
  SARA score: Heel–shin slide—left: 0
  SARA score: Heel–shin slide—right: 0
  SARA score: Nose–finger—left: 0
  SARA score: Nose–finger—right: 0
  SARA score: Sitting: 0
  SARA score: Speech disturbance: 0
  SARA score: Stance: 0
[2]; subject 20012079
  SARA score: Fast alternating hand movements—left: 0
  SARA score: Fast alternating hand movements—right: 0
  SARA score: Finger chase—left: 0.5
  SARA score: Finger chase—right: 0
  SARA score: Gait: 2
  SARA score: Heel–shin slide—left: 0
  SARA score: Heel–shin slide—right: 0
  SARA score: Nose–finger—left: 0
  SARA score: Nose–finger—right: 0
  SARA score: Sitting: 0
  SARA score: Speech disturbance: 0
  SARA score: Stance: 2
[2]; subject 20012080
  SARA score: Fast alternating hand movements—left: 0
  SARA score: Fast alternating hand movements—right: 0
  SARA score: Finger chase—left: 0
  SARA score: Finger chase—right: 0
  SARA score: Gait: 3
  SARA score: Heel–shin slide—left: 0
  SARA score: Heel–shin slide—right: 0
  SARA score: Nose–finger—left: 0.5
  SARA score: Nose–finger—right: 0.5
  SARA score: Sitting: 0
  SARA score: Speech disturbance: 0
  SARA score: Stance: 2
[2]; subject 20012081
  SARA score: Fast alternating hand movements—left: 0
  SARA score: Fast alternating hand movements—right: 0
  SARA score: Finger chase—left: 0
  SARA score: Finger chase—right: 0.5
  SARA score: Gait: 1
  SARA score: Heel–shin slide—left: 0
  SARA score: Heel–shin slide—right: 0
  SARA score: Nose–finger—left: 0
  SARA score: Nose–finger—right: 0
  SARA score: Sitting: 0
  SARA score: Speech disturbance: 0
  SARA score: Stance: 0
[2]; subject 20012082
  Cumulative SARA Score: 2
  SARA score: Fast alternating hand movements—left: 0
  SARA score: Fast alternating hand movements—right: 0
  SARA score: Finger chase—left: 0
  SARA score: Finger chase—right: 0
  SARA score: Gait: 1
  SARA score: Heel–shin slide—left: 0
  SARA score: Heel–shin slide—right: 0
  SARA score: Nose–finger—left: 0
  SARA score: Nose–finger—right: 0
  SARA score: Sitting: 0
  SARA score: Speech disturbance: 0
  SARA score: Stance: 1
